{
  "source": "patent US20070092942A1",
  "about": "“Ubiquitin specific enzymes of family herpesviridae” (priority 2005, published 2007)",
  "settings_in_all_cases": "FIGS. 6-7",
  "key": {"UL36": {"system": "UL36", "experiment": "Western blot screen for inhibitors: anti-HA blot of UL36 bound to HA tagged Ub-VME probe", "assay_type": "binding, HSV-1", "description": "FIGS. 6-7 is a series photographs showing the results of a screen for inhibitors of the Herpes deubiquitinating enzyme. The photographs show the results of Western blot assays: anti-HA blots for detecting UL36 bound to the HA tagged Ub-VME probe."}, "UCH-1": {"biological_target": "T1, UCH-1 (Homo sapiens, UniProt P09936)", "T1 sequence (P09936 1-223)": "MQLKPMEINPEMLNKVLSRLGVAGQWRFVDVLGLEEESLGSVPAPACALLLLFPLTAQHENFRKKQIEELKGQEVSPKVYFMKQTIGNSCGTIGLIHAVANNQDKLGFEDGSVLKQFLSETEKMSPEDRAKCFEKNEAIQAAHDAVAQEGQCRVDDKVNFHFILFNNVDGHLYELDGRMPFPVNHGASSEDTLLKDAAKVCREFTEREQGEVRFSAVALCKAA", "experiment": "Western blot inhibitor screen, HA tagged Ub-VME probe, other enzymes", "assay_type": "binding"}, "UCH-3": {"biological_target": "T2, UCH-3 (Homo sapiens, UniProt P15374)", "T2 sequence (P15374 1-230)": "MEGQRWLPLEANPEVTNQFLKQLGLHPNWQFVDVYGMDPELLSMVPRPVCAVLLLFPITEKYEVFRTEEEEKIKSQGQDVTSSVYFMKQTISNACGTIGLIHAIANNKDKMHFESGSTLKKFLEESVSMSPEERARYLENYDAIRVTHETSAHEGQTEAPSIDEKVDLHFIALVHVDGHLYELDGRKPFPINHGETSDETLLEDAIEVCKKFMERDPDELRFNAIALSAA", "experiment": "Western blot inhibitor screen, HA tagged Ub-VME probe, other enzymes", "assay_type": "binding"}, "USP7": {"biological_target": "USP7 (Homo sapiens, UniProt Q93009)", "sequence (Q93009 whole entry, species assumed)": "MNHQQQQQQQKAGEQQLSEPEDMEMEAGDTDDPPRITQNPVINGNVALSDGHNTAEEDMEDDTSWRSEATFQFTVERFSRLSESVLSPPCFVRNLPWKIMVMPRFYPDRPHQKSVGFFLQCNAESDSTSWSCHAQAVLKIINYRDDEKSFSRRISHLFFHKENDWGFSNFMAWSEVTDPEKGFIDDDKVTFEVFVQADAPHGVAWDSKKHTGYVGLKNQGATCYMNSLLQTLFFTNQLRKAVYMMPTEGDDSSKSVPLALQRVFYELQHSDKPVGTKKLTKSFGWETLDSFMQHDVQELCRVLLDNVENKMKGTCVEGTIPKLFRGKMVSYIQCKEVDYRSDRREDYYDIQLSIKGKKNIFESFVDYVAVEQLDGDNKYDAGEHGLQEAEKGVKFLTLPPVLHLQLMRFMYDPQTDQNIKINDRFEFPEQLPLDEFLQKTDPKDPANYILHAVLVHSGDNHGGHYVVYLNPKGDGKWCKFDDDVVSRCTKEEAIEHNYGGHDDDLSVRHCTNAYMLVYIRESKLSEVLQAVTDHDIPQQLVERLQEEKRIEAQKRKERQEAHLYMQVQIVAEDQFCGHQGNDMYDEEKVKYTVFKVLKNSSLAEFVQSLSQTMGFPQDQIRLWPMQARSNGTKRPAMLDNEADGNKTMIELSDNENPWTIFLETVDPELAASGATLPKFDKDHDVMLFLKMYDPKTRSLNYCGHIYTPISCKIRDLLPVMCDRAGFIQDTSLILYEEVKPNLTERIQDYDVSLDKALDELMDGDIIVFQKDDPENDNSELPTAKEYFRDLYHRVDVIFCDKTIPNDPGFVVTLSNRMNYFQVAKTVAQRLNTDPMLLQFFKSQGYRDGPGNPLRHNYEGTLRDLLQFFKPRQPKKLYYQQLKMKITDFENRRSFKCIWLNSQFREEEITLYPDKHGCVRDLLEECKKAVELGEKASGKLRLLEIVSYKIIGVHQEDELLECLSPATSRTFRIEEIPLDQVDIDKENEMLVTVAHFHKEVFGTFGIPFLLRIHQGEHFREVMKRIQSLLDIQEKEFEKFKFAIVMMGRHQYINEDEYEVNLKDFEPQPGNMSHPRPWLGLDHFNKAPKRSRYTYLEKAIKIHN", "experiment": "Western blot inhibitor screen, HA tagged Ub-VME probe, other enzymes", "assay_type": "binding"}, "Cezanne": {"biological_target": "T3, Cezanne (Homo sapiens, UniProt Q6GQQ9)", "T3 sequence (Q6GQQ9 1-843)": "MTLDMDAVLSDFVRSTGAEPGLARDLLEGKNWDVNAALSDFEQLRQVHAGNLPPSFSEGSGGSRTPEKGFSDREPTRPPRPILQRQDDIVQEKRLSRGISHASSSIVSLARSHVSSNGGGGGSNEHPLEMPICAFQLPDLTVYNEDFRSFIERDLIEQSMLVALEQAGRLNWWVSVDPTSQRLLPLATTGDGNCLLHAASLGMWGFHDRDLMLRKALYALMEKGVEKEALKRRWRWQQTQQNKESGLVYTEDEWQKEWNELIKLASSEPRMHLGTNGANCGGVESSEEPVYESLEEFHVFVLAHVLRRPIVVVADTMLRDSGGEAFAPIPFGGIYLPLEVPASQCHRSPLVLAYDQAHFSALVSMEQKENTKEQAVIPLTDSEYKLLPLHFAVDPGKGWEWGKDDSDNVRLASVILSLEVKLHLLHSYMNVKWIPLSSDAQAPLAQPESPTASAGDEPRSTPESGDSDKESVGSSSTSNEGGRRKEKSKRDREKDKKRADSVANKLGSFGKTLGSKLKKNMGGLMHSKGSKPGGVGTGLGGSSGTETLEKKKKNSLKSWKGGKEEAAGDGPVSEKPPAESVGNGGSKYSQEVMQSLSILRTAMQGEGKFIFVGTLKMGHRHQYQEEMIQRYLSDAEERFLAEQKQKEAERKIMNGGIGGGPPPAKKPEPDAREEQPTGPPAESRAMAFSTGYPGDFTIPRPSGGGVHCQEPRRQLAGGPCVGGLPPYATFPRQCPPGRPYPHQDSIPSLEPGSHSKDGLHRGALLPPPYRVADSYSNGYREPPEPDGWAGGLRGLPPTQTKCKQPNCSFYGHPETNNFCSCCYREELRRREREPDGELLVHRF", "experiment": "Western blot inhibitor screen, HA tagged Ub-VME probe, other enzymes", "assay_type": "binding"}, "CYLD": {"biological_target": "T4, CYLD (Homo sapiens, UniProt Q9NQC7)", "T4 sequence (Q9NQC7 1-956)": "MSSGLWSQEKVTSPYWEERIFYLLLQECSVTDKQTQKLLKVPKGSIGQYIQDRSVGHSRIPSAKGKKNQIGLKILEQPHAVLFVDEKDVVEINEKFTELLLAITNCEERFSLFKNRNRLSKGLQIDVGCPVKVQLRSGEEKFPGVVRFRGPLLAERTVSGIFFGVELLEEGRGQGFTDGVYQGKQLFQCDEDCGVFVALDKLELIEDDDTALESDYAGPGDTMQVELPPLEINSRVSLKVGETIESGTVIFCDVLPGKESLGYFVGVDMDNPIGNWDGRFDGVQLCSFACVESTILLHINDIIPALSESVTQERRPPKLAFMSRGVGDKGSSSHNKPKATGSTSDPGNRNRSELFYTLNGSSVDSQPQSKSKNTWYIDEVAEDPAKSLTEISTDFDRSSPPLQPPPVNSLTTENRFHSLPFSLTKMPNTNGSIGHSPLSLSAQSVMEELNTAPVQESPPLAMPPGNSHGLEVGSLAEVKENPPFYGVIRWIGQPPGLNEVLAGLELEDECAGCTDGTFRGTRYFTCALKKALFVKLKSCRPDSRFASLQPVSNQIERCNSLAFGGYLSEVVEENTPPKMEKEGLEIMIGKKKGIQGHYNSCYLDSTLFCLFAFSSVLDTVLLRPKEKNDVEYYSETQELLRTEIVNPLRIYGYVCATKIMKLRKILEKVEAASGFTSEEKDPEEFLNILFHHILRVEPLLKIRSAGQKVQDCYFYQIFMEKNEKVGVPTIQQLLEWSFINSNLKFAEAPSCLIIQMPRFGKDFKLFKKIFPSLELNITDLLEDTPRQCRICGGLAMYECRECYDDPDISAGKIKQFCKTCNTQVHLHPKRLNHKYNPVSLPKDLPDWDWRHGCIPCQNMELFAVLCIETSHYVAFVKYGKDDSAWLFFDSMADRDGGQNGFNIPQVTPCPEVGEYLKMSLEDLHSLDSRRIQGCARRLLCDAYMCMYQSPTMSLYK", "experiment": "Western blot inhibitor screen, HA tagged Ub-VME probe, other enzymes", "assay_type": "binding"}, "Ataxin-3": {"biological_target": "Ataxin-3 (Homo sapiens, UniProt P54252)", "sequence (P54252 whole entry, species assumed)": "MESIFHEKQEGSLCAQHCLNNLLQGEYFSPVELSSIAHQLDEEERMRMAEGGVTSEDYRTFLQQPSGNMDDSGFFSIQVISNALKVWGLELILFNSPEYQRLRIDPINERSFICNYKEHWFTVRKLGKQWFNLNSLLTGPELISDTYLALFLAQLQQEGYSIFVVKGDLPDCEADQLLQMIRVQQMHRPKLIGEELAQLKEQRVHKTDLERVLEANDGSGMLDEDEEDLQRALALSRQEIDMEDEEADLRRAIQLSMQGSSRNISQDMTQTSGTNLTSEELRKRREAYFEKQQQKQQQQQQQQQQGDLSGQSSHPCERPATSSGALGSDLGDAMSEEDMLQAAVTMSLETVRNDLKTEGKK", "experiment": "Western blot inhibitor screen, HA tagged Ub-VME probe, other enzymes", "assay_type": "binding"}},
  "note": "Peptide text beside a SMILES is read from it. * marks the point of attachment. Cbz = O=C(OCc1ccccc1)*; CH2F = FC*",
  "data": [
    {"smiles": "CC(C)[C@H](NC(=O)OCc1ccccc1)C(=O)N[C@@H](C)C(=O)N[C@@H](C)C(=O)CF", "note": "[Z-VA-L-A-fink] (Cbz-Val-Ala-Ala-CH2F)", "values": [
      {"measurement": "Inhibition of UL36 (HA band of UL36 bound to HA tagged Ub-VME probe decreases or disappears)", "setting": "UL36", "result": "specifically inhibited"},
      {"measurement": "Inhibition of UCH-1", "setting": "UCH-1", "result": "did not inhibit"},
      {"measurement": "Inhibition of UCH-3", "setting": "UCH-3", "result": "did not inhibit"},
      {"measurement": "Inhibition of USP7", "setting": "USP7", "result": "did not inhibit"},
      {"measurement": "Inhibition of Cezanne", "setting": "Cezanne", "result": "did not inhibit"},
      {"measurement": "Inhibition of CYLD", "setting": "CYLD", "result": "did not inhibit"},
      {"measurement": "Inhibition of Ataxin-3", "setting": "Ataxin-3", "result": "did not inhibit"}
    ]}
  ]
}
